Consider 21 molecules from ChEMBL document CHEMBL4261618, “Monodisperse oligoethylene glycols modified Propofol prodrugs” (Bioorg Med Chem Lett, 2018).

The subject of data set [1] is L929. The data set can be described thus: Cytotoxicity against mouse L929 cells assessed as reduction in cell viability up to 4 mM after 24 hrs by MTT assay. Format: cell-based. The settings on record: l929, 24 h.
The subject of data set [2] is A549. The data set can be described thus: Cytotoxicity against human A549 cells assessed as reduction in cell viability up to 4 mM after 24 hrs by MTT assay. Format: cell-based. The note with it: a549, 24 h.
Data set [3] in a line: Cytotoxicity against mouse L929 cells assessed as cell viability at 0.05 mM after 24 hrs by MTT assay relative to control. The data set is classed as cell-based. The note with it: read-out: Activity.
Data set [4] has as its system L929. The data set can be described thus: Cytotoxicity against mouse L929 cells after 24 hrs by MTT assay. Format: cell-based. The settings on record: L929, 24 h.
In data set [5] the test system is A549. Description: Cytotoxicity against human A549 cells after 24 hrs by MTT assay. The data set is classed as cell-based. The settings on record: A549, 24 h.
Data set [6] in a line: Solubility of the compound in pH 7.4 PBS buffer by ultraviolet spectroscopic method. The data set is classed as physicochemical.
Data set [7] in a line: Critical micellar concentration of the compound in pyrene/acetone solution ultrasonicated for 30 mins followed by incubation in water bath at 60 degC for 40 mins and subsequent incubation at 40 degC for 12 hrs by fluorescence assay. The note with it: buffer. Format: physicochemical.
Data set [8] in a line: Cytotoxicity against human A549 cells assessed as cell viability at 0.05 mM after 24 hrs by MTT assay relative to control. Format: cell-based. The note with it: read-out: Activity.
Data set [9] in a line: Prodrug activation in Sprague-Dawley rat plasma assessed as propofol release at 4 mg after 5 mins by HPLC analysis. The data set is classed as cell-free.
The test system of data set [10] is Rattus norvegicus. Description: Anesthetic activity in Sprague-Dawley rat assessed as onset time for loss of righting reflex at 0.073 mmol/kg, iv for 10 secs. Format: functional.
The subject of data set [11] is Rattus norvegicus. The data set can be described thus: Anesthetic activity in Sprague-Dawley rat assessed as anesthetic duration time at 0.073 mmol/kg, iv for 10 secs. The data set is classed as functional.
Data set [12] in a line: Prodrug activation in Sprague-Dawley rat plasma assessed as propofol release at 4 mg after 24 hrs by HPLC analysis. The data set is classed as cell-free.
A short description of data set [13]: Solubility of the compound in pH 7.4 PBS buffer containing 60% methanol by ultraviolet spectroscopic method. The data set is classed as physicochemical.
Data set [14] deals with Rattus norvegicus. The data set can be described thus: Toxicity in Sprague-Dawley rat assessed as death at 0.073 mmol/kg, iv for 10 secs. The note with it: in vivo, 10 s. The data set is classed as organism-based.
The nature of data set [15]: Prodrug activation in Sprague-Dawley rat plasma assessed as propofol release at 4 mg after 1 mins by HPLC analysis. The data set is classed as cell-free.
The nature of data set [16]: Prodrug activation in Sprague-Dawley rat plasma assessed as propofol release at 4 mg after 20 mins by HPLC analysis. Format: cell-free.

In brackets after ≈: the same amount, converted by molar mass.

For the molecule `COCCOCCOCCO`, the Activity result in the data set on L929 [1] and in the data set with A549 [2] was “Non-Toxic” each time.

With `COCCOCCOCCOCCOCCOCCOCCOC(=O)Oc1c(C(C)C)cccc1C(C)C`, the viability at 24 h, 50 µM in data set [3] and in data set [8] was above 90% each time. The EC50 with L929 [4] was 110 µM; in the data set on A549 [5], 500 µM. In data set [6], this molecule came in with a solubility of 2730 µg/mL (≈ 5010 µM). Also, in data set [7], the CMC was 1.5 mM.

As for `COCCOCCOCCOCCOCCOCCOCCOCCOCCOCCOCC(=O)Oc1c(C(C)C)cccc1C(C)C`, the Drug metabolism entry in data set [9] and in data set [12] was “Metabolite_Detected” in each case. Besides, the viability at 24 h, 50 µM in [3] and in [8] was above 90% each time. For the same molecule, the EC50 with L929 [4] worked out at 490 µM; in the data set with A549 [5] it was 600 µM. Besides, the values for the Time in the data set with Rattus norvegicus [10] and in the data set with Rattus norvegicus [11] were 0 s and 8.5 min, respectively. The solubility in data set [6] was above 371000 µg/mL.

For `COCCOCCOCCOCOc1c(C(C)C)cccc1C(C)C`, the viability at 24 h, 50 µM in data set [3] and in data set [8] was above 90% each time. The EC50 in the data set on L929 [4] is 1170 µM; in the data set on A549 [5], above 10000 µM. The same molecule yielded a solubility in data set [6] of 280 µg/mL (≈ 790 µM).

In the case of `COCCOCCOCCOC(=O)Oc1c(C(C)C)cccc1C(C)C`, the viability at 24 h, 50 µM in data set [3] and in data set [8] was above 90% in each case. Moreover, the EC50 in the data set with L929 [4] is 2290 µM; in the data set with A549 [5] it was 2130 µM. In addition, in [6], the solubility was determined as 190 µg/mL (≈ 516 µM).

With `COCCOCCOCCOCCOCCOCCOCC(=O)Oc1c(C(C)C)cccc1C(C)C`, the viability at 24 h, 50 µM in data set [3] and in [8] was above 90% throughout. Besides, the values for the EC50 with L929 [4] and in the data set on A549 [5] were 110 µM and 520 µM, respectively. In data set [6], this molecule returned a solubility of 2020 µg/mL (≈ 3920 µM).

For the molecule `COCCOCCOCCOCC(=O)Oc1c(C(C)C)cccc1C(C)C`, the viability at 24 h, 50 µM in [3] and in data set [8] was above 90% each time. In addition, the EC50 was 650 µM in the data set with L929 [4] and 740 µM in the data set with A549 [5]. For the same molecule, in data set [6], the solubility was determined as 990 µg/mL (≈ 2590 µM).

Regarding `COCCOCCOCCOCCOCOc1c(C(C)C)cccc1C(C)C`, the viability at 24 h, 50 µM in data set [3] and in [8] was above 90% each time. For the same molecule, the values for the EC50 with L929 [4] and in the data set with A549 [5] were 900 µM and 1730 µM, respectively. This molecule had a solubility in data set [6] of 570 µg/mL (≈ 1430 µM).

For the molecule `COCCOCCOC(=O)Oc1c(C(C)C)cccc1C(C)C`, the viability at 24 h, 50 µM in data set [3] and in data set [8] was above 90% throughout. Also, the EC50 in the data set on L929 [4] was 4600 µM; in the data set on A549 [5] it was above 10000 µM. The molecule further returned a solubility in [13] of 70 µg/mL (≈ 216 µM).

As for `COCCOCCOCCOCCOCCOCCOCCOCCOCCOCCOCOc1c(C(C)C)cccc1C(C)C`, the viability at 24 h, 50 µM in data set [3] and in [8] was above 90% each time. The EC50 with L929 [4] was 210 µM; in the data set on A549 [5] it was 610 µM. In the data set on Rattus norvegicus [14], the Activity result is listed as “Toxic”. The molecule also came in with a solubility in data set [6] above 289000 µg/mL. For the same molecule, the Drug metabolism result in data set [12] is “Metabolite_Notdetected”.

As for `COCCOCCOCOc1c(C(C)C)cccc1C(C)C`, the viability at 24 h, 50 µM in data set [3] and in [8] was above 90% throughout. In addition, the half-maximal effective concentration (EC50) is 4870 µM in the data set on L929 [4] and above 10000 µM in the data set with A549 [5]. Also, the solubility in data set [13] is 200 µg/mL (≈ 644 µM).

On to `COCCOCCOCCOCCOC(=O)Oc1c(C(C)C)cccc1C(C)C`, for which the viability at 24 h, 50 µM in [3] and in data set [8] was above 90% each time. For the same molecule, the EC50 in the data set with L929 [4] was 1390 µM; in the data set on A549 [5] it was 1360 µM. Also, the solubility in data set [6] was 380 µg/mL (≈ 921 µM).

Take `COCCOCCOCCOCCOCCOCCOCCOCC(=O)Oc1c(C(C)C)cccc1C(C)C`: the viability at 24 h, 50 µM in data set [3] and in data set [8] was above 90% each time. The EC50 came out at 120 µM in the data set with L929 [4] and 520 µM in the data set with A549 [5]. Also, in data set [15], the Drug metabolism entry is given as “Metabolite_Detected”. The Time in the data set with Rattus norvegicus [10] is listed as 0 s; in the data set on Rattus norvegicus [11] it was 10.5 min. For the same molecule, in data set [6], the solubility is above 216000 µg/mL. The molecule further returned a CMC in data set [7] of 1.3 mM.

As to `COCCOCCOCCOCCOCC(=O)Oc1c(C(C)C)cccc1C(C)C`, the viability at 24 h, 50 µM in [3] and in data set [8] was above 90% each time. For the same molecule, the EC50 was found to be 440 µM with L929 [4] and 630 µM in the data set on A549 [5]. Further, the solubility in [6] stood at 1580 µg/mL (≈ 3700 µM).

As to `COCCOCCOCCOCCOCCOCCOC(=O)Oc1c(C(C)C)cccc1C(C)C`, the viability at 24 h, 50 µM in data set [3] and in data set [8] was above 90% throughout. Further, the concentration giving a half-maximal response (EC50) came to 510 µM in the data set on L929 [4] and 730 µM in the data set on A549 [5]. The solubility in data set [6] was 830 µg/mL (≈ 1660 µM).

Consider `COCCOCCOCCOCCOCCOCCOCCOCCOCCOCCO`, for which the Activity entry with L929 [1] and with A549 [2] was “Non-Toxic” throughout.

With `COCCOCCOCC(=O)Oc1c(C(C)C)cccc1C(C)C`, the viability at 24 h, 50 µM in [3] and in data set [8] was above 90% each time. Also, the concentration giving a half-maximal response (EC50) in the data set with L929 [4] turned out to be 1410 µM; in the data set with A549 [5], 4150 µM. The solubility in data set [13] was found to be 420 µg/mL (≈ 1240 µM).

Turning to `COCCOCCOCCOCCOCCOCCOCCOCOc1c(C(C)C)cccc1C(C)C`, the viability at 24 h, 50 µM in data set [3] and in [8] was above 90% in each case. Moreover, the EC50 in the data set on L929 [4] stood at 130 µM; with A549 [5] it was 500 µM. Further, the Activity result in the data set with Rattus norvegicus [14] is “Toxic”. In data set [6], the solubility was 55400 µg/mL (≈ 104000 µM). In data set [7], this molecule came in with a CMC of 0.6 mM.

For the molecule `COCCOCCOCCOCCOCCOCCOCOc1c(C(C)C)cccc1C(C)C`, the viability at 24 h, 50 µM in data set [3] and in data set [8] was above 90% in each case. The 50% effective concentration (EC50) in the data set on L929 [4] was determined as 140 µM; in the data set on A549 [5], 510 µM. Moreover, in data set [6], the concentration in solution (solubility) was 1250 µg/mL (≈ 2570 µM).

On to `COCCOCCOCCOCCOCCOCCOCCOCCOCCOCCOC(=O)Oc1c(C(C)C)cccc1C(C)C`, for which the viability at 24 h, 50 µM in data set [3] and in data set [8] was above 90% each time. For the same molecule, the EC50 with L929 [4] is 420 µM; with A549 [5], 400 µM. Further, the Time was 0 s with Rattus norvegicus [10] and 5.6 min with Rattus norvegicus [11]. Besides, the Drug metabolism result in data set [16] is on record as “Metabolite_Detected”. The molecule further showed a solubility in data set [6] above 315000 µg/mL.

Consider `CC(C)c1cccc(C(C)C)c1O` [PROPOFOL], for which the 50% effective concentration (EC50) was 4730 µM in the data set with L929 [4] and 9550 µM in the data set on A549 [5]. Moreover, the Time was determined as 0 s with Rattus norvegicus [10] and 10.3 min with Rattus norvegicus [11].
